Test results published in US20250353864A1, “INDAZOLE CONTAINING MACROCYCLES AND THEIR USE” (BLOSSOMHILL THERAPEUTICS, INC., priority 2022, published 2025).

Tests used:
Type in all cases: biochemical
EGFR WT = EGFR WT (Homo sapiens (Human), UniProt P00533); experiment: HotSpot radiometric kinase assay (Reaction Biology), EGFR WT; conditions: 10 μM ATP
Outline: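 Kinase, substrate and cofactors are mixed in 20 mM Hepes pH 7.5 with 10 mM MgCl2, 1 mM EGTA, 2 mM DTT and 1% DMSO. Compound is added, and about 20 min later ATP/33P-ATP (10 μM final) starts a 120-min room-temperature reaction, which is then spotted onto P81 paper.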

EGFR (D770_N771insNPG) = EGFR (D770_N771insNPG) (Homo sapiens (Human), UniProt P00533, INS770NPG); experiment: HotSpot radiometric kinase assay, EGFR (D770_N771insNPG); conditions: 10 μM ATP, read-out: EGFR (Δ770_N771insNPG) IC50
Outline: (§1)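 Compounds were preincubated ~20 min with kinase/substrate in pH 7.5 Hepes buffer (MgCl2, EGTA, Brij35, BSA, Na3VO4, DTT, 1% DMSO), then ATP plus 33P-ATP was added to 10 μM final. After 120 min at room temperature, reactions were spotted on P81 filters and washed; IC50 values came from curve fits.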

EGFR Δ746-750 mutant = EGFR Δ746-750 mutant (Homo sapiens (Human), UniProt P00533, DEL746-750); experiment: HotSpot radiometric kinase assay, EGFR Δ746-750 mutant; conditions: 10 μM ATP
Outline: as §1

[1] = target: EGFR Δ746-750/C797S mutant (Homo sapiens (Human), UniProt P00533, C797S/DEL746-750); experiment: HotSpot radiometric kinase assay, EGFR Δ746-750/C797S mutant; conditions: 10 μM ATP
Outline: as §1

EGFR L858R mutant = EGFR L858R mutant (Homo sapiens (Human), UniProt P00533, L858R); experiment: HotSpot radiometric kinase assay, EGFR L858R mutant; conditions: 10 μM ATP
Outline: as §1

EGFR L858R/T790M mutant = EGFR L858R/T790M mutant (Homo sapiens (Human), UniProt P00533, L858R/T790M); experiment: HotSpot radiometric kinase assay, EGFR L858R/T790M mutant; conditions: 10 μM ATP
Outline: as §1

[2] = target: EGFR L858R/T790M/C797S mutant (Homo sapiens (Human), UniProt P00533, C797S/L858R/T790M); experiment: HotSpot radiometric kinase assay, EGFR L858R/T790M/C797S mutant; conditions: 10 μM ATP
Outline: as §1

CLK1 = CLK1 (Homo sapiens (Human), UniProt P49759); experiment: Inhibition of CLK1 kinase activity evaluated at Nanosyn (ADP-Glo); conditions: ADP-Glo luminescence
Description: (§2) Inhibition of CLK, CLK2, CLK3 and CLK4 Kinase Activity Evaluated at Nanosyn
(§3) Kinase protein and substrate were pre-diluted in the HEPES assay buffer (100 mM HEPES, pH 7.5, 0.01% Triton X-100, 0.1% BSA, 5 mM MgCl2, […] DTT, 10 Sodium Orthovanadate, […] Beta-Glycerophosphate) dispensed into 384 well plate (5 μL per well). Control samples (0%-inhibition in the absence of inhibitor, DMSO only) and 100%-inhibition (in the absence of enzyme) were assembled in replicates of six and were used to calculate %-inhibition in the presence of compounds. Test compounds were added to the protein samples by acoustic dispensing (Labcyte Echo550). Concentration of DMSO was equalized to 1% in all samples. Reactions were initiated by addition of ATP by acoustic dispensing (Labcyte Echo550) and incubated according to assay specific incubation time. After incubation. 5 μL of Promega ADP-Glo reagent was added and incubated for 40 minutes. After 40 minutes, 10 uL of Promega kinase detection reagent was added. After 10 min of incubation with Kinase detection reagent, the luminescence was read on microplate reader (Biotek Synergy).

CLK2 = CLK2 (Homo sapiens (Human), UniProt P49760); experiment: Inhibition of CLK2 kinase activity evaluated at Nanosyn (ADP-Glo); conditions: ADP-Glo luminescence
Description: as §2, §3

CLK3 = CLK3 (Homo sapiens (Human), UniProt P49761); experiment: Inhibition of CLK3 kinase activity evaluated at Nanosyn (ADP-Glo); conditions: ADP-Glo luminescence
Description: as §2, §3

CLK4 = CLK4 (Homo sapiens (Human), UniProt Q9HAZ1); experiment: Inhibition of CLK4 kinase activity evaluated at Nanosyn (ADP-Glo); conditions: ADP-Glo luminescence
Description: as §2, §3

Sequence of EGFR WT (P00533 25-1210): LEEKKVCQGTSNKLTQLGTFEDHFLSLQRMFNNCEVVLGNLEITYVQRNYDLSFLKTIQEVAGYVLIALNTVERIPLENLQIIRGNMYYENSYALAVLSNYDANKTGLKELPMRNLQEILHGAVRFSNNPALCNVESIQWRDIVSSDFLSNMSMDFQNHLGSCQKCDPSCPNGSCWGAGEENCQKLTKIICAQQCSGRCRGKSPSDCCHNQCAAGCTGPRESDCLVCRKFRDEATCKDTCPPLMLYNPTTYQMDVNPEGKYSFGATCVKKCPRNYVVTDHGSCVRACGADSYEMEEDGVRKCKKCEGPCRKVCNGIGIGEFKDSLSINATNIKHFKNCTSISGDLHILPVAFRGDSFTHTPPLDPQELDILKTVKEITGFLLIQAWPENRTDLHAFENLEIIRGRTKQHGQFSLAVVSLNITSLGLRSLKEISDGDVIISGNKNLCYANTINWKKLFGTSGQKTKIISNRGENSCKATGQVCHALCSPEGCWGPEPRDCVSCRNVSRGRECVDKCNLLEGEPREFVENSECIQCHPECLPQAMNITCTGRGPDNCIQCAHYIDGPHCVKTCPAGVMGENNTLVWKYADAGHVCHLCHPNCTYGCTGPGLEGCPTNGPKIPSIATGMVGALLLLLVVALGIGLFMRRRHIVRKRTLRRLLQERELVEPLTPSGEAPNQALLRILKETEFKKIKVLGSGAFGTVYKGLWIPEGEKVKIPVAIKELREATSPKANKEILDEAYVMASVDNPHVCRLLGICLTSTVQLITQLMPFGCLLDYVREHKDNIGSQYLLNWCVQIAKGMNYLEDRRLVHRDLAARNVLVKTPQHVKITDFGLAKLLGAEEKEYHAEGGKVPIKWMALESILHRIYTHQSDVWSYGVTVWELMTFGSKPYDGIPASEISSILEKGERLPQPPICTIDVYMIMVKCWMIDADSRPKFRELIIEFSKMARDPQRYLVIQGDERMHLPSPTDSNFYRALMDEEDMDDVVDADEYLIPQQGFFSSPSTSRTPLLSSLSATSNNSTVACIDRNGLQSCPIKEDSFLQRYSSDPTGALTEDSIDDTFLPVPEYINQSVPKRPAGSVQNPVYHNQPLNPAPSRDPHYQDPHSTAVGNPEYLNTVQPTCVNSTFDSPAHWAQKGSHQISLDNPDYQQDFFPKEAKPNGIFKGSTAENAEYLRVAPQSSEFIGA
Sequence of CLK1 (P49759 whole entry): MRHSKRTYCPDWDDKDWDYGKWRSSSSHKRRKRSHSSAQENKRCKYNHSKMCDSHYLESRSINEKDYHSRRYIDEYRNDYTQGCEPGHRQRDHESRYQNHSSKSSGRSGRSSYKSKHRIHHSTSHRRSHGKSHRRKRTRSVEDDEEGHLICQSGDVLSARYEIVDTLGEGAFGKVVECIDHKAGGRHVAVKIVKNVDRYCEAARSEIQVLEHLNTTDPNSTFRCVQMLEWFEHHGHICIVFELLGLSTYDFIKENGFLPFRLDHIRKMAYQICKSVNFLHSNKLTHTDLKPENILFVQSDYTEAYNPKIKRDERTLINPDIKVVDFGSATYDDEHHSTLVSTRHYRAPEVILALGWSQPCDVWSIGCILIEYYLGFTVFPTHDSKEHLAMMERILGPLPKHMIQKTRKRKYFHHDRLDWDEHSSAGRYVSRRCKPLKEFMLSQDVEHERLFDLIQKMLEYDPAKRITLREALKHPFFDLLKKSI
Sequence of EGFR L858R mutant (P00533 25-1210 L858R): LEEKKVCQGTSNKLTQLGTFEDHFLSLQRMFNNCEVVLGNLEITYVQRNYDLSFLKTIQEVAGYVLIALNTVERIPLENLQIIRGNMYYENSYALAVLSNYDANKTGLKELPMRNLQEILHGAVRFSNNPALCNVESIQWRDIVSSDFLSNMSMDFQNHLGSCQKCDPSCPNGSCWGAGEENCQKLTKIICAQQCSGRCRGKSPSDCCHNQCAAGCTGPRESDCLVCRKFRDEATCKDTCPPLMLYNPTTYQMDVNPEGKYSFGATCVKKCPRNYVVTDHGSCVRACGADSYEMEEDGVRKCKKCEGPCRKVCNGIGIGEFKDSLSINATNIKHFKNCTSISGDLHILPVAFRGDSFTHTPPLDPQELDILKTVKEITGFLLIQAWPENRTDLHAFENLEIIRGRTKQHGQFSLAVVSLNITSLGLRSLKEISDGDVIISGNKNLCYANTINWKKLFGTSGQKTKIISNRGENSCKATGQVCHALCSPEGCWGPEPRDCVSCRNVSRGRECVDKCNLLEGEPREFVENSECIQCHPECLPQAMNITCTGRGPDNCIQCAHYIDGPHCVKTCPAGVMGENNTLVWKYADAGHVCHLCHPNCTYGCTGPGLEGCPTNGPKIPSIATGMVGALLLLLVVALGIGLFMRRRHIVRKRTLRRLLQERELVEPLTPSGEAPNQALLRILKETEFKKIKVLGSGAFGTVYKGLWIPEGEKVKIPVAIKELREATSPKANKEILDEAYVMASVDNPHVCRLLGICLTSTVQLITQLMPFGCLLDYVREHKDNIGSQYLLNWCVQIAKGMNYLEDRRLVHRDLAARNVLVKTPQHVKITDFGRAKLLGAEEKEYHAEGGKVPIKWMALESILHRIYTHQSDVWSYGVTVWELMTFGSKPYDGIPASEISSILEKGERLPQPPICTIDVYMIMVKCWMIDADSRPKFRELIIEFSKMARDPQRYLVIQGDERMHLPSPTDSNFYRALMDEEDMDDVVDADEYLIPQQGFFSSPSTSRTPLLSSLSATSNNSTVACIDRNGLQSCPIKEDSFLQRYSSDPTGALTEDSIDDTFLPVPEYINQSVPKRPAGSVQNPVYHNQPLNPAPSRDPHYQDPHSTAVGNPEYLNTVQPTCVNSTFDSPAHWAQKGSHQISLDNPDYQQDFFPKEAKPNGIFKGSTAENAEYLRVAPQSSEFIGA
Sequence of CLK4 (Q9HAZ1 whole entry): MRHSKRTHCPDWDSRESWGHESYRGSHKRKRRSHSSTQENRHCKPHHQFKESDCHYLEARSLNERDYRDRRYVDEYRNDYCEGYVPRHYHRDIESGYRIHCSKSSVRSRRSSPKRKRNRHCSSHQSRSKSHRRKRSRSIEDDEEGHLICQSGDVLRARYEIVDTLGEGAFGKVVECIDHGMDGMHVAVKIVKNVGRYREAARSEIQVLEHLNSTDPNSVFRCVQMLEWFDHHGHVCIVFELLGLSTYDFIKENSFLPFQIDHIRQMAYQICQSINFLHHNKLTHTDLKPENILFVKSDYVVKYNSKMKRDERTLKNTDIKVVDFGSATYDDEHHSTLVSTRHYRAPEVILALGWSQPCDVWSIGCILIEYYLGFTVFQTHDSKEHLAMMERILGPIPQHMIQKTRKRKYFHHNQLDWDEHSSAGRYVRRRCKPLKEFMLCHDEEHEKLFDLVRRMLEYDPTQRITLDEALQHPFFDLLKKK
Sequence of EGFR L858R/T790M mutant (P00533 25-1210 T790M/L858R): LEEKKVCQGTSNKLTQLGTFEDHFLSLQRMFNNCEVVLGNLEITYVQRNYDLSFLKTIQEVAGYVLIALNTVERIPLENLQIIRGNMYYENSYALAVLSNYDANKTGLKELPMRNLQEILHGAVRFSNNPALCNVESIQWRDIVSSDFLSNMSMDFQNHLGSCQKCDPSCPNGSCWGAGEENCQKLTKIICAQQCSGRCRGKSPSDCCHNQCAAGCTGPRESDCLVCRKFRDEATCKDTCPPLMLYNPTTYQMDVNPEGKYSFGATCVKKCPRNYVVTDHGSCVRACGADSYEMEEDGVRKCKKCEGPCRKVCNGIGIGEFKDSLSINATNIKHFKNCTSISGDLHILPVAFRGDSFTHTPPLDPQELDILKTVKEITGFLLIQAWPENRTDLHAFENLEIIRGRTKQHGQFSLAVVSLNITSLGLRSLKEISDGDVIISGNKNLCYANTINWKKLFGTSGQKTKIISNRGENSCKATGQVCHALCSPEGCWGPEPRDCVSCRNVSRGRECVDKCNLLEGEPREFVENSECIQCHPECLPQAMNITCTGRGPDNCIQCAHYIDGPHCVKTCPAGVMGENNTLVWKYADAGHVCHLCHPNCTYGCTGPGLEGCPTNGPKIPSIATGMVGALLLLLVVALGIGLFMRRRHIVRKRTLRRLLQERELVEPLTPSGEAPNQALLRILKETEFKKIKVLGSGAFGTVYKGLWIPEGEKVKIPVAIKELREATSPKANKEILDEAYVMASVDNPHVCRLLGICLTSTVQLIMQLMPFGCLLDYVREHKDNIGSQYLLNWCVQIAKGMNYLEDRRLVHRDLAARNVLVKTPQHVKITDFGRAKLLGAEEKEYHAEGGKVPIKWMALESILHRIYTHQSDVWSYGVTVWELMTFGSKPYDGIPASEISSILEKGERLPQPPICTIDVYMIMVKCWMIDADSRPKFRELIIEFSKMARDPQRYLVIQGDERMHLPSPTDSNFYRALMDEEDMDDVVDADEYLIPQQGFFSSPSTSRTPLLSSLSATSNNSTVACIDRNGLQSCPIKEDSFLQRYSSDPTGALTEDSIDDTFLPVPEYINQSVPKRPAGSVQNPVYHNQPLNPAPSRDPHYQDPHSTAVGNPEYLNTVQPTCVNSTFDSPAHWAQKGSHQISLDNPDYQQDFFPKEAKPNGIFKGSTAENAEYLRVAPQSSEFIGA
Sequence of CLK2 (P49760 whole entry): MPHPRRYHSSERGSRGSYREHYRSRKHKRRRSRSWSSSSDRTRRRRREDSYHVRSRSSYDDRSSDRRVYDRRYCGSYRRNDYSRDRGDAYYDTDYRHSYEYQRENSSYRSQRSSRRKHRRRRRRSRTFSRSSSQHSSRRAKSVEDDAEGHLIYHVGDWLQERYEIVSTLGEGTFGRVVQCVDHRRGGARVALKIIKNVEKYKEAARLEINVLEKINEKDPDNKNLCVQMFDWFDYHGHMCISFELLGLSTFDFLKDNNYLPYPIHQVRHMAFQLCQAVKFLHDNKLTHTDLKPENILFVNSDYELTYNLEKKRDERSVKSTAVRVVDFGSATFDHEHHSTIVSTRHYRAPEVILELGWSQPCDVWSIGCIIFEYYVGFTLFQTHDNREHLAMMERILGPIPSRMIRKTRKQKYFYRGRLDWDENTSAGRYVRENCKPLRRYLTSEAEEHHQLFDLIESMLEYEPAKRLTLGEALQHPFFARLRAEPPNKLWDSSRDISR

Compound	IC50 (EGFR WT)	IC50 (EGFR (D770_N771insNPG))	IC50 (EGFR Δ746-750 mutant)	IC50 [1]	IC50 (EGFR L858R mutant)	IC50 (EGFR L858R/T790M mutant)	IC50 [2]	IC50 (CLK1)	IC50 (CLK2)	IC50 (CLK3)	IC50 (CLK4)
Cn1ncc2c1OCCN1CC[C@@H](Oc3ccc(F)cc3/C=C/c3n[nH]c4ccc-2cc34)C1=O [Example 132, (10R,16E)-14-fluoro-3-methyl-3,5,6,9,10,19-hexahydro-8H-20,22-etheno-7,10-methanodipyrazolo[3,4-i:4′,3′-m][1,8,5]benzodioxazacyclooctadecin-25-one]	721 nM	284 nM	39.4 nM	67 nM	157 nM	20.1 nM	35.3 nM	0.19 nM	0.02 nM	0.28 nM	0.3 nM
Cc1c2c(nn1C)/C=C/c1n[nH]c3ccc(cc13)-c1cnn(C)c1O[C@@H](C)CN(C)C2 [Example 126, (10S,17E)-8,10,12,14,15-pentamethyl-2,10,11,12,13,15-hexahydro-8H-3,5-ethenotripyrazolo[4,3-f:3′,4′-j:4″,3″-n][1,4]oxazacyclopentadecine]	164 nM	133 nM	16.1 nM	19.8 nM	18.6 nM	2.07 nM	2.8 nM	0.32 nM	0.12 nM	188 nM	0.49 nM
CCOc1nn(CCO)c2c1/C=C/c1n[nH]c3ccc(cc13)-c1cnn(CC)c1O[C@@H](C)CN(C)C2 [Example 168, 2-[(10S,17E)-16-ethoxy-8-ethyl-10,12-dimethyl-2,8,10,11,12,13-hexahydro-14H-3,5-ethenotripyrazolo[3,4-f:3′,4′-j:4″,3″-n][1,4]oxazacyclopentadecin-14-yl]ethan-1-ol]	16.6 nM	13.9 nM	5.96 nM	1.38 nM	1.88 nM	0.72 nM	2.72 nM	0.39 nM	0.33 nM	238 nM	0.77 nM
CCOc1nn(CCO)c2c1/C=C/c1n[nH]c3ccc(cc13)-c1cnn(C)c1O[C@@H]1CCCN(C2)C1 [Example 137, 2-[(10R,19E)-18-ethoxy-8-methyl-2,10,11,12,13,15-hexahydro-3,5-etheno-10,14-methanotripyrazolo[3,4-h:3′,4′-l:4″,3″-p][1,6]oxazacycloheptadecin-16(8H)-yl]ethan-1-ol]	55.3 nM	129 nM	6.59 nM	4.8 nM	7.8 nM	0.6 nM	1.02 nM	1.37 nM	2.13 nM	79.2 nM	1.55 nM
C[C@@H](C#N)Oc1nn(CCO)c2c1/C=C/c1n[nH]c3cc(F)c(cc13)-c1cnn(C)c1O[C@@H](C)CN(C)C2 [Ex. 269, (2S)-2-{[(10S,17E)-19-fluoro-14-(2-hydroxyethyl)-8,10,12-trimethyl-2,10,11,12,13,14-hexahydro-8H-3,5-ethenotripyrazolo[3,4-f:3′,4′-j:4″,3″-n][1,4]oxazacyclopentadecin-16-yl]oxy}propanenitrile]	20.3 nM	102 nM	5.25 nM	2.56 nM	8.53 nM	1.82 nM	0.67 nM	0.94 nM	0.32 nM	238 nM	1.76 nM
CCOc1nn(CCO)c2c1/C=C/c1n[nH]c3ccc(cc13)-c1cnn(C)c1O[C@@H](C)CN(CC)C2 [Example 177, 2-[(10S,17E)-16-ethoxy-12-ethyl-8,10-dimethyl-2,8,10,11,12,13-hexahydro-14H-3,5-ethenotripyrazolo[3,4-f:3′,4′-j:4″,3″-n][1,4]oxazacyclopentadecin-14-yl]ethan-1-ol]	0.67 nM	1.56 nM	0.56 nM	0.75 nM	0.38 nM	0.6 nM	1.78 nM	0.47 nM	0.23 nM	59.1 nM	1.08 nM
C[C@H]1CN(C)Cc2c(c(OCC(F)(F)F)nn2C)/C=C/c2n[nH]c3ccc(cc23)-c2cnn(C)c2O1 [Example 162, (10S,17E)-8,10,12,14-tetramethyl-16-(2,2,2-trifluoroethoxy)-2,10,11,12,13,14-hexahydro-8H-3,5-ethenotripyrazolo[3,4-f:3′,4′-j:4″,3″-n][1,4]oxazacyclopentadecine]	238 nM	523 nM	30.5 nM	33.5 nM	47.4 nM	1.4 nM	0.9 nM	0.11 nM	0.07 nM	784 nM	0.25 nM
CCN1Cc2nn(C)c(C)c2/C=C/c2n[nH]c3ccc(cc23)-c2cnn(C)c2O[C@@H](C)C1 [Example 59, (10S,17E)-12-ethyl-8,10,15,16-tetramethyl-2,10,11,12,13,15-hexahydro-8H-3,5-ethenotripyrazolo[3,4-f:3′,4′-j:4″,3″-n][1,4]oxazacyclopentadecine]	44.1 nM	127 nM	18.6 nM	2.42 nM	7.63 nM	0.7 nM	1.02 nM	0.82 nM	2.13 nM	541 nM	2.03 nM
CC(C)Oc1nn(CCO)c2c1/C=C/c1n[nH]c3ccc(cc13)-c1cnn(C)c1O[C@@H](C)CN(C)[C@@H]2C [Example 223]	42.6 nM	102 nM	4.07 nM	3.12 nM	7.07 nM	0.61 nM	0.34 nM	0.85 nM	0.28 nM	30 nM	2.11 nM
C[C@H]1CN(C)Cc2c(c(OC3CC(S(C)(=O)=O)C3)nn2C)/C=C/c2n[nH]c3ccc(cc23)-c2cnn(C)c2O1 (stereo partly drawn) [Example 187, (10S,17E)-16-{I3-(methanesulfonyl)cyclobutyl|oxy}-8,10,12,14-tetramethyl-2,10,11,12,13,14-hexahydro-8H-3,5-ethenotripyrazolo[3,4-f:3′,4′-j:4″,3″-n][1,4]oxazacyclopentadecine]	25.9 nM	74.7 nM	8.88 nM	7.84 nM	6.88 nM	0.47 nM	0.33 nM	0.48 nM	0.3 nM	311 nM	1.35 nM
CSCn1ncc2c1O[C@@H](C)CN(C(C)C)Cc1c(c(C)nn1C)/C=C/c1n[nH]c3ccc-2cc13 [Example 164, (10S,17E)-10,14,16-trimethyl-8-[(methylsulfanyl)methyl]-12-(propan-2-yl)-2,10,11,12,13,14-hexahydro-8H-3,5-ethenotripyrazolo[3,4-f:3′,4′-j:4″,3″-n][1,4]oxazacyclopentadecine]	220 nM	95.3 nM	33.4 nM	20.2 nM	16.7 nM	3.23 nM	1.76 nM	0.39 nM	0.75 nM	1000 nM	0.59 nM
C[C@H](C#N)Oc1nn(CCO)c2c1/C=C/c1n[nH]c3cc(F)c(cc13)-c1cnn(C)c1O[C@@H](C)CN(C)C2 [Ex. 268, (2R)-2-{[(10S,17E)-19-fluoro-14-(2-hydroxyethyl)-8,10,12-trimethyl-2,10,11,12,13,14-hexahydro-8H-3,5-ethenotripyrazolo[3,4-f:3′,4′-j:4″,3″-n][1,4]oxazacyclopentadecin-16-yl]oxy}propanenitrile]	7.91 nM	30.5 nM	2.01 nM	1.32 nM	4.35 nM	1.04 nM	0.52 nM	0.57 nM	0.18 nM	45.1 nM	1.22 nM
